Results as given in EP2951180B1, “2,6,7,8 SUBSTITUTED PURINES AS HDM2 INHIBITORS” (Merck Sharp & Dohme Corp., priority 2013, dated 2014).

Each molecule was assayed against T1, HDM2 (Homo sapiens, UniProt Q00987) (assay: FRET assay (HDM2 inhibition; method not described in this part)). Details: Table 1.
T1 construct: Thioredoxin (N); made in house; host or cells: E. coli strain BL21(DE3)Rosetta
T1 sequence (Q00987 17-125): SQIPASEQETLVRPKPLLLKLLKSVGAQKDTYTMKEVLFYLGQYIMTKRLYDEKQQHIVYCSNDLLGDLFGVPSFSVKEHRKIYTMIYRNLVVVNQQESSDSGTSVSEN
Assay type: binding
`COc1cc(-c2nc3nc(C(=O)O)nc(N[C@H](C)C4CCC4)c3n2Cc2ccc(C(F)(F)F)cc2)ccc1Cl` [Example 1.124, 8-(4-chloro-3-methoxyphenyl)-6-{[(1R)-1-cyclobutylethyl]amino}-7-[4-(trifluoromethyl)benzyl]-7H-purine-2-carboxylic acid] showed an IC50 of 26.4 nM. For `C[C@@H](Nc1nc(C(=O)O)nc2nc(-c3ccc4c(c3)OCCN4C)n(Cc3ccc(C(F)(F)F)cc3)c12)C1CCC1` [Example 1.125, 6-{[(1R)-1-cyclobutylethyl]amino}-8-(4-methyl-3,4-dihydro-2H-1,4-benzoxazin-7-yl)-7-[4-(trifluoromethyl)benzyl]-7H-purine-2-carboxylic acid], the IC50 was 116 nM. `Cc1cccc(-c2nc3nc(C(=O)O)nc(N[C@H](C)C4CCC4)c3n2Cc2ccc(C(F)(F)F)cc2)c1C` [Example 1.126, 6-{[(1R)-1-cyclobutylethyl]amino}-8-(2,3-dimethylphenyl)-7-[4-(trifluoromethyl)benzyl]-7H-purine-2-carboxylic acid] gave an IC50 of 18 nM. `CC(C)Oc1cccc(-c2nc3nc(C(=O)O)nc(N[C@H](C)C4CCC4)c3n2Cc2ccc(C(F)(F)F)cc2)c1` [Example 1.127, 6-{[(1R)-1-cyclobutylethyl]amino}-8-[3-(1-methylethoxy)phenyl]-7-[4-(trifluoromethyl)benzyl]-7H-purine-2-carboxylic acid] was tested, and the IC50 was 38.7 nM. In the case of `C[C@@H](Nc1nc(C(=O)O)nc2nc(-c3cc(C(C)(C)C)cc(C(C)(C)C)c3)n(Cc3ccc(C(F)(F)F)cc3)c12)C1CCC1` [Example 1.128, 6-{[(1R)-1-cyclobutylethyl]amino}-8-(3,5-di-tert-butylphenyl)-7-[4-(trifluoromethyl)benzyl]-7H-purine-2-carboxylic acid], the IC50 is reported as 224 nM. `Cc1cc(OC(F)(F)F)ccc1-c1nc2nc(C(=O)O)nc(N[C@H](C)C3CCC3)c2n1Cc1ccc(C(F)(F)F)cc1` [Example 1.129, 6-{[(1R)-1-cyclobutylethyl]amino}-8-[2-methyl-4-(trifluoromethoxy)phenyl]-7-[4-(trifluoromethyl)benzyl]-7H-purine-2-carboxylic acid] gave an IC50 of 46 nM. `C[C@@H](Nc1nc(C(=O)O)nc2nc(-c3cccc(Nc4ccccc4)c3)n(Cc3ccc(C(F)(F)F)cc3)c12)C1CCC1` [Example 1.130, 6-{[(1R)-1-cyclobutylethyl]amino}-8-[3-(phenylamino)phenyl]-7-[4-(trifluoromethyl)benzyl]-7H-purine-2-carboxylic acid] showed an IC50 of 76.3 nM. Work on `Cc1cc(C)cc(-c2nc3nc(C(=O)O)nc(N[C@H](C)C4CCC4)c3n2Cc2ccc(C(F)(F)F)cc2)c1` [Example 1.131, 6-{[(1R)-1-cyclobutylethyl]amino}-8-(3,5-dimethylphenyl)-7-[4-(trifluoromethyl)benzyl]-7H-purine-2-carboxylic acid] yielded an IC50 of 369 nM. Molecule `Cc1ccc(Cl)cc1-c1nc2nc(C(=O)O)nc(N[C@H](C)C3CCC3)c2n1Cc1ccc(C(F)(F)F)cc1` [Example 1.132, 8-(5-chloro-2-methylphenyl)-6-{[(1R)-1-cyclobutylethyl]amino}-7-[4-(trifluoromethyl)benzyl]-7H-purine-2-carboxylic acid] has an IC50 of 524 nM. With `COc1ccc2cc(-c3nc4nc(C(=O)O)nc(N[C@H](C)C5CCC5)c4n3Cc3ccc(C(F)(F)F)cc3)ccc2c1` [Example 1.133, 6-{[(1R)-1-cyclobutylethyl]amino}-8-(6-methoxynaphthalen-2-yl)-7-[4-(trifluoromethyl)benzyl]-7H-purine-2-carboxylic acid] the IC50 was 73.3 nM. `COc1c(C)cc(-c2nc3nc(C(=O)O)nc(N[C@H](C)C4CCC4)c3n2Cc2ccc(C(F)(F)F)cc2)cc1C` [Example 1.134, 6-{[(1R)-1-cyclobutylethyl]amino}-8-(4-methoxy-3,5-dimethylphenyl)-7-[4-(trifluoromethyl)benzyl]-7H-purine-2-carboxylic acid] showed an IC50 of 56.2 nM.
